Assay results published in paper PMC8273128 (ACS infectious diseases, 2021).

Columns and labels:
[1] = target: SmTGR-E330A/D334A (Schistosoma mansoni, UniProt Q962Y6, D334A/E330A); experiment: DTNB assay on SmTGR-E330A/D334A double mutant; type: biochemical; settings: 500 μM compound
[2] = target: T1, SmTGR WT (Schistosoma mansoni, UniProt Q962Y6); experiment: biochemical
[3] = target: SmTGR-U597C (Schistosoma mansoni, UniProt Q962Y6); experiment: X-ray crystallography fragment soaking and co-crystallization; type: binding; settings: crystal structure of SmTGR-U597C, soaking or co-crystallization
[4] = target: T1, SmTGR WT; experiment: Steady-state competition experiments versus NADPH; type: biochemical; settings: upon increasing compound concentration from 0 to 3 mM
[5] = target: T2, SmTGR-E337A (Schistosoma mansoni, UniProt Q962Y6, E337A); experiment: biochemical
T2 sequence (Q962Y6 1-598 E337A): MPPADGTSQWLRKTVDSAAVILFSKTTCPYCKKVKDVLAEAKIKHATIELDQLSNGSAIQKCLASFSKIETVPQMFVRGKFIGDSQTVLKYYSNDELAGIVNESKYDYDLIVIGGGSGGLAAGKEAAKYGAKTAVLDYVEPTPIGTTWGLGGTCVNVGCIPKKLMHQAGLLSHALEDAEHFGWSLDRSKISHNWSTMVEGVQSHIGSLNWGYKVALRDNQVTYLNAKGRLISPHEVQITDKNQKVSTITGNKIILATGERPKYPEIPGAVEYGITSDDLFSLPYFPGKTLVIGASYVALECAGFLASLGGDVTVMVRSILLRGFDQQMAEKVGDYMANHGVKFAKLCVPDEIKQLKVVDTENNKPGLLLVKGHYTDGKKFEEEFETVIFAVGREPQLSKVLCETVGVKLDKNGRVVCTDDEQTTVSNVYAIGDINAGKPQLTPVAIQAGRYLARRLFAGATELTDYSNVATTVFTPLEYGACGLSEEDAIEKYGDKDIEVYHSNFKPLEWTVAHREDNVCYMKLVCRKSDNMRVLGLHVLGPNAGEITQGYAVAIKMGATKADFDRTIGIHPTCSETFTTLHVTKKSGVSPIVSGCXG

In the case of `Nc1cccc2nsnc12` [Compound 3, 4-aminopiazthiole], the “percentage of inhibition at 500 μM” value [1] is reported as 48.1 ± 6.2%, the IC50 [2] is reported as ~500 µM and the inhibition at 500 µM ([2]; read-out: % of inhibition at 500 μM) is reported as 51.4 ± 4.1%. The Binding site [3] was “Site 2”.

`Cc1ccc2c(O)c(C(=O)O)cnc2n1` [Compound 5, 4-hydroxy-7-methyl-1,8-naphthyridine-3-carboxylic acid] was tested, and the Binding site [3] was “Site 3”.

With `Cc1[nH]c2ccccc2c1CC(=O)O` [Compound 2, 2-methylindole-3-acetic acid] the IC50 [2] was > 1000 µM, the Binding site [3] was “Site 1” and the “decrease of Vmax” value [4] was ~ 10%.

`COc1nc2ccccc2nc1CCC(=O)O` [Compound 1, 3-(3-methoxyquinoxalin-2-yl)propanoic acid] was tested, and the IC50 [2] was > 3000 µM and the Binding site [3] was “Site 1 (both insoakingand in co-crystallization experiments)”.

For `OCc1c[nH]c2ccccc12` [Compound 4, indole-3-carbinol], the IC50 [5] was 283 ± 15 µM, the IC50 [2] was 284 ± 12 µM and the Binding site [3] was “Site 2”.
